# Patent US10131652B2, “Pyrimidinyloxy benzene derivatives as herbicides” (E. I. DU PONT DE NEMOURS AND COMPANY, priority 2014, dated 2018)
# Key:
# Type in all cases: in vivo
# [1] = test system: giant foxtail (Setaria faberii); test: Test B pre-/postemergence plant response
# Outline: (§1)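 Visual injury rating, 0 (no effect) to 100 (complete control), vs untreated controls after ~10 d greenhouse. Pre: directed soil spray after planting in loam/sand. Post: plants 2–10 cm, 1–2 leaf stage. Compound in non-phytotoxic solvent plus surfactant.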
# [2] = test system: barnyardgrass (Echinochloa crus-galli); test: Test B pre-/postemergence plant response
# Outline: as §1
# [3] = test system: Italian ryegrass (Lolium multiflorum); test: Test B pre-/postemergence plant response
# Outline: as §1
# [4] = test system: wheat (Triticum aestivum); test: Test B pre-/postemergence plant response
# Outline: as §1
# [5] = test system: ragweed (common ragweed, Ambrosia elatior); test: Test B pre-/postemergence plant response
# Outline: as §1
# corn (Zea mays) = test: Test B pre-/postemergence plant response
# Outline: as §1
# kochia (Kochia scoparia) [6] = test: Test B pre-/postemergence plant response
# Outline: as §1
# [7] = test system: pigweed (Amaranthus retroflexus); test: Test B pre-/postemergence plant response
# Outline: as §1
# [8] = test system: chickweed (common chickweed, Stellaria media); test: Test D postemergence plant response; details: for Chickweed plant response rating: scale 0 to 100 (0 no effect, 100 complete control); for Plant response rating, Chickweed: scale 0 to 100, 0 no effect, 100 complete control
# Outline: (§2)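 Scores reflect visual plant response relative to untreated controls on a 0 to 100 scale, where 100 means complete control. Treatment was postemergence on 2–18 cm plants in peat-based potting medium, with greenhouse assessment 13–15 days later.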
# wild oat (Avena fatua) = test: Test D postemergence plant response; details: for Oat, Wild plant response rating: 31 g ai/ha, scale 0 to 100 (0 no effect, 100 complete control); for Plant response rating, Oat, Wild: scale 0 to 100, 0 no effect, 100 complete control
# Outline: as §2
# kochia (Kochia scoparia) [9] = test: Test D postemergence plant response; details: for Kochia plant response rating: 31 g ai/ha, scale 0 to 100 (0 no effect, 100 complete control); for Plant response rating, Kochia: scale 0 to 100, 0 no effect, 100 complete control
# Outline: as §2
# [10] = test system: barnyardgrass (Echinochloa crus-galli); test: Test C flooded paddy test plant response; details: Flood, 250 g ai/ha; scale of 0 to 100 where 0 is no effect and 100 is complete control; 13 to 15 days
# Outline: (§3)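 Scored visually on a 0–100 scale (100 = complete control) against untreated plants 13 to 15 days after treatment in the greenhouse. Compounds went into paddy water of pots flooded to 3 cm, holding 2-leaf-stage plants.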
# rice (Oryza sativa) = test: Test C flooded paddy test plant response; details: Flood, 250 g ai/ha; scale of 0 to 100 where 0 is no effect and 100 is complete control; 13 to 15 days
# Outline: as §3
# [11] = test system: small-flower umbrella sedge (Cyperus difformis); test: Test C flooded paddy test plant response; details: Flood, 250 g ai/ha; scale of 0 to 100 where 0 is no effect and 100 is complete control; 13 to 15 days
# Outline: as §3
# [12] = test system: ducksalad (Heteranthera limosa); test: Test C flooded paddy test plant response; details: Flood, 250 g ai/ha; scale of 0 to 100 where 0 is no effect and 100 is complete control; 13 to 15 days
# Outline: as §3
# [13] = test system: blackgrass (Alopecurus myosuroides); test: Test B postemergence plant response
# Outline: (§4)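 Plants grown in pots of loam soil–sand blend were sprayed postemergence with formulated test chemicals at 2 to 10 cm height, one- to two-leaf stage. After about 10 days in a greenhouse, injury was visually rated against untreated controls on a 0 to 100 scale (0 no effect, 100 complete control).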
# [14] = test system: galium (catchweed bedstraw, Galium aparine); test: Test B postemergence plant response
# Outline: as §4
# [15] = 31 g ai/ha, Postemergence, 0 to 100 scale, 0 no effect, 100 complete control
# [16] = 31 g ai/ha, Preemergence, 0 to 100 scale where 0 is no effect and 100 is complete control
# [17] = 125 g ai/ha, postemergence, 0 to 100 scale, 0 no effect, 100 complete control
# [18] = Preemergence, 125 g ai/ha, 0 to 100 scale (0 no effect, 100 complete control)
# [19] = Postemergence, 31 g ai/ha, 0 to 100 scale (0 no effect, 100 complete control)
smiles,measurement,setting,value
FC(F)Oc1cccc(Oc2ncc(Cl)cn2)c1-c1cc(C(F)F)on1 [Compound 131],"Plant response rating, Foxtail, Giant",[1]; [15],50
same,"Plant response rating, Foxtail, Giant",[1]; [16],100
same,"Plant response rating, Foxtail, Giant",[1]; [17],90
same,"Foxtail, Giant plant response rating",[1]; [18],100
same,"Plant response rating, Barnyardgrass",[2]; [15],50
same,"Plant response rating, Barnyardgrass",[2]; [16],80
same,"Plant response rating, Barnyardgrass",[2]; [17],90
same,Barnyardgrass plant response rating,[2]; [18],100
same,"Plant response rating, Ryegrass, Italian",[3]; [16],20
same,"Plant response rating, Ryegrass, Italian",[3]; [17],70
same,"Ryegrass, Italian plant response rating",[3]; [18],90
same,"Plant response rating, Wheat",[4]; [17],30
same,"Plant response rating, Ragweed",[5]; [16],20
same,"Plant response rating, Ragweed",[5]; [17],70
same,Ragweed plant response rating,[5]; [18],60
same,"Plant response rating, Corn",corn (Zea mays); [15],20
same,"Plant response rating, Corn",corn (Zea mays); [17],40
same,"Plant response rating, Kochia",kochia (Kochia scoparia) [6]; [16],0
same,"Plant response rating, Kochia",kochia (Kochia scoparia) [6]; [17],70
same,Kochia plant response rating,kochia (Kochia scoparia) [6]; [18],10
same,"Plant response rating, Pigweed",[7]; [16],100
same,"Plant response rating, Pigweed",[7]; [17],100
same,Pigweed plant response rating,[7]; [18],100
same,Chickweed plant response rating,[8]; 16 g ai/ha,65
same,Chickweed plant response rating,[8]; 31 g ai/ha,80
same,"Plant response rating, Chickweed",[8]; 62 g ai/ha,98
same,"Plant response rating, Chickweed",[8]; 125 g ai/ha,100
same,"Oat, Wild plant response rating",wild oat (Avena fatua),15
same,"Plant response rating, Oat, Wild",wild oat (Avena fatua); 62 g ai/ha,20
same,"Plant response rating, Oat, Wild",wild oat (Avena fatua); 125 g ai/ha,35
same,Kochia plant response rating,kochia (Kochia scoparia) [9],90
same,"Plant response rating, Kochia",kochia (Kochia scoparia) [9]; 62 g ai/ha,95
same,"Plant response rating, Kochia",kochia (Kochia scoparia) [9]; 125 g ai/ha,100
same,Barnyardgrass plant response rating,[10],75
same,Rice plant response rating,rice (Oryza sativa),60
same,"Sedge, Umbrella plant response rating",[11],95
same,Ducksalad plant response rating,[12],95
same,"Plant response rating, Blackgrass",[13]; [15],50
same,"Plant response rating, Blackgrass",[13]; [17],80
same,"Plant response rating, Galium",[14]; [17],90
FC(F)(Cl)c1cc(-c2ccccc2Oc2ncc(Cl)cn2)no1 [Compound 143],"Plant response rating, Foxtail, Giant",[1]; [16],70
same,"Plant response rating, Foxtail, Giant",[1]; [17],80
same,"Plant response rating, Foxtail, Giant",[1]; [19],10
same,"Foxtail, Giant plant response rating",[1]; [18],100
same,"Plant response rating, Barnyardgrass",[2]; [16],20
same,"Plant response rating, Barnyardgrass",[2]; [17],90
same,"Plant response rating, Barnyardgrass",[2]; [19],10
same,Barnyardgrass plant response rating,[2]; [18],90
same,"Plant response rating, Ryegrass, Italian",[3]; [16],0
same,"Plant response rating, Ryegrass, Italian",[3]; [17],50
same,"Plant response rating, Ryegrass, Italian",[3]; [19],0
same,"Ryegrass, Italian plant response rating",[3]; [18],60
same,"Plant response rating, Wheat",[4]; [17],30
same,"Plant response rating, Wheat",[4]; [19],20
same,"Plant response rating, Ragweed",[5]; [16],0
same,"Plant response rating, Ragweed",[5]; [17],20
same,"Plant response rating, Ragweed",[5]; [19],0
same,Ragweed plant response rating,[5]; [18],30
same,"Plant response rating, Corn",corn (Zea mays); [17],30
same,"Plant response rating, Corn",corn (Zea mays); [19],40
same,"Plant response rating, Kochia",kochia (Kochia scoparia) [6]; [16],30
same,"Plant response rating, Kochia",kochia (Kochia scoparia) [6]; [17],100
same,"Plant response rating, Kochia",kochia (Kochia scoparia) [6]; [19],100
same,Kochia plant response rating,kochia (Kochia scoparia) [6]; [18],90
same,"Plant response rating, Pigweed",[7]; [16],90
same,"Plant response rating, Pigweed",[7]; [17],100
same,"Plant response rating, Pigweed",[7]; [19],90
same,Pigweed plant response rating,[7]; [18],100
same,Chickweed plant response rating,[8]; 16 g ai/ha,45
same,Chickweed plant response rating,[8]; 31 g ai/ha,50
same,"Plant response rating, Chickweed",[8]; 62 g ai/ha,60
same,"Plant response rating, Chickweed",[8]; 125 g ai/ha,80
same,"Oat, Wild plant response rating",wild oat (Avena fatua),0
same,"Plant response rating, Oat, Wild",wild oat (Avena fatua); 62 g ai/ha,5
same,"Plant response rating, Oat, Wild",wild oat (Avena fatua); 125 g ai/ha,5
same,Kochia plant response rating,kochia (Kochia scoparia) [9],100
same,"Plant response rating, Kochia",kochia (Kochia scoparia) [9]; 62 g ai/ha,100
same,"Plant response rating, Kochia",kochia (Kochia scoparia) [9]; 125 g ai/ha,100
same,Barnyardgrass plant response rating,[10],30
same,Rice plant response rating,rice (Oryza sativa),35
same,"Sedge, Umbrella plant response rating",[11],100
same,Ducksalad plant response rating,[12],85
same,"Plant response rating, Blackgrass",[13]; [17],60
same,"Plant response rating, Blackgrass",[13]; [19],30
same,"Plant response rating, Galium",[14]; [17],100
same,"Plant response rating, Galium",[14]; [19],50
